Experimental data taken from paper PMC3985639, “A widespread bacteriophage abortive infection system functions through a Type IV toxin–antitoxin mechanism” (Nucleic Acids Research, 2014).

Molecular target: T1, AbiEii (AbiEii-His6) (Streptococcus agalactiae, UniProt Q8DZ35)
T1 construct: gene abiGII; full-length, C-terminal His6 tag kept, from pRLD56 in E. coli BL21 co-expressing AbiEi (pRLD69), Ni-NTA purified
T1 sequence (Q8DZ35 1-281): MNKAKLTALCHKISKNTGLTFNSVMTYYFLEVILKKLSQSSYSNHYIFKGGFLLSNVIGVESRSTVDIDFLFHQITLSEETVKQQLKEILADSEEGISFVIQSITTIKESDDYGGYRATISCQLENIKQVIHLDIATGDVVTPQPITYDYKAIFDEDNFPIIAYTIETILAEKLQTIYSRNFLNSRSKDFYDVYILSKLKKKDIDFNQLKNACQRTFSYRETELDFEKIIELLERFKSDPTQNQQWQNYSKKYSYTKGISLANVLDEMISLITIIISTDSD
Experiment: native PAGE gel shift of [α-32P]-NTP
Type: binding
Conditions: labelled compound; 0.65 pmol; 10 mM Tris-HCl, […] MgCl2, 50 mM KCl, pH 8.3, 37 °C, 1 h

SMILES | native PAGE gel shift of [α-32P]-NTP
Nc1ncnc2c1ncn2[C@@H]1O[C@H](COP(=O)(O)OP(=O)(O)OP(=O)(O)O)[C@@H](O)[C@H]1O [ATP] | Limited binding to ATP was also observed
Nc1nc2c(ncn2[C@@H]2O[C@H](COP(=O)(O)OP(=O)(O)OP(=O)(O)O)[C@@H](O)[C@H]2O)c(=O)[nH]1 [GTP] | Increasing AbiEii-His6 concentrations led to retardation in GTP migration, demonstrating GTP binding
